This note sets out measurements from patent US11820773B2, “Tricyclic compounds” (ALIGOS THERAPEUTICS, INC., priority 2020, dated 2023).

Each structure is given as a SMILES string. A value given as a limit tells only on which side of the number the result lay.

This assay concerns HBV. The experiment in a line: HBV-DNA antiviral assay using HepG2.117 cells (intracellular HBV DNA by qPCR). Particulars: Hepatitis B virus, 72 h, HBV DNA inhibition, 3 days incubation, 2% DMSO. The format is cell-based, genotype D HBV. An outline of the steps: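 HepG2.117 cells (stable genotype D HBV, Tet-off) seeded without doxycycline, treated next day with 9-point 4-fold dilutions in 2% DMSO for 3 days at 37° C. Intracellular HBV DNA quantified by qPCR against a standard curve; viability by CellTiter-Glo ATP. EC50, EC90, CC50 from variable-slope dose-response fits versus DMSO control.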
For `C[C@@H]1Cc2c(n3ncc(CC4CC4)c3n(-c3ccc(-c4nc(=O)on4C)cc3)c2=O)CN1C(=O)c1ccc(Br)c(C(F)(F)F)c1` (stereo in doubt) [Compound 93a, 2-methyl-3-[4-[rac-(11R)-12-[4-bromo-3-(trifluoromethyl)benzoyl]-5-(cyclopropylmethyl)-11-methyl-8-oxo-2,3,7,12-tetrazatricyclo[7.4.0.0^2,6]trideca-1(9),3,5-trien-7-yl]phenyl]-1,2,4-oxadiazol-5-one], the EC50 was under 50 nM.
In turn, `CC(C)Cc1cnn2c3c(c(=O)n(-c4ccc(-c5cnnn5C)cc4)c12)C[C@H](C)N(C(=O)c1ccc(Br)c(C(F)(F)F)c1)C3` (stereo in doubt) [Compound 102b, rac-(11S)-12-[4-bromo-3-(trifluoromethyl)benzoyl]-5-isobutyl-11-methyl-7-[4-(3-methyltriazol-4-yl)phenyl]-2,3,7,12-tetrazatricyclo[7.4.0.0^2,6]trideca-1(9),3,5-trien-8-one] came in with an EC50 of 50 to 500 nM.
With `C[C@@H]1Cc2c(n3ncc(CC4CCC4)c3n(-c3ccc(-c4nncn4C)cc3)c2=O)CN1C(=O)c1ccc(Br)c(C(F)(F)F)c1` (stereo in doubt) [Compound 45a, rac-(11R)-12-[4-bromo-3-(trifluoromethyl)benzoyl]-5-(cyclobutylmethyl)-11-methyl-7-[4-(4-methyl-1,2,4-triazol-3-yl)phenyl]-2,3,7,12-tetrazatricyclo[7.4.0.0^2,6]trideca-1(9),3,5-trien-8-one] the figure was under 50 nM; with `C[C@H]1Cc2c(n3ncc(Cc4ccccc4)c3n(-c3ccc(-n4nnnc4C(F)(F)F)cc3)c2=O)CN1C(=O)c1ccc(Br)c(C(F)(F)F)c1` (stereo in doubt) [Compound 92b, rac-(11S)-5-benzyl-12-[4-bromo-3-(trifluoromethyl)benzoyl]-11-methyl-7-[4-[5-(trifluoromethyl)tetrazol-1-yl]phenyl]-2,3,7,12-tetrazatricyclo[7.4.0.0^2,6]trideca-1(9),3,5-trien-8-one], over 5000 nM.
With `CC(C)Cc1cnn2c3c(c(=O)n(-c4ccc5c(c4)ncn5C)c12)C[C@@H](C)N(C(=O)c1ccc(Br)c(C(F)(F)F)c1)C3` (stereo in doubt) [Compound 86a, rac-(11R)-12-[4-bromo-3-(trifluoromethyl)benzoyl]-5-isobutyl-11-methyl-7-(1-methylbenzimidazol-5-yl)-2,3,7,12-tetrazatricyclo[7.4.0.0^2,6]trideca-1(9),3,5-trien-8-one], the EC50 is under 50 nM.
With `C[C@@H]1Cc2c(n3ncc(Cc4ccccc4)c3n(-c3ccc(-n4ccc(C(F)(F)F)n4)cc3)c2=O)CN1C(=O)c1ccc(Br)c(C(F)(F)F)c1` (stereo in doubt) [Compound 70a, rac-(11R)-5-benzyl-12-[4-bromo-3-(trifluoromethyl)benzoyl]-11-methyl-7-[4-[3-(trifluoromethyl)pyrazol-1-yl]phenyl]-2,3,7,12-tetrazatricyclo[7.4.0.0^2,6]trideca-1(9),3,5-trien-8-one] the figure was 50 to 500 nM; with `Cc1nnc(-c2ccc(-n3c(=O)c4c(n5ncc(CC(C)C)c35)CN(C(=O)c3ccc(Br)c(C(F)(F)F)c3)[C@@H](C)C4)cc2)[nH]1` (stereo in doubt) [Compound 59b, rac-(11S)-12-[4-bromo-3-(trifluoromethyl)benzoyl]-5-isobutyl-11-methyl-7-[4-(5-methyl-4H-1,2,4-triazol-3-yl)phenyl]-2,3,7,12-tetrazatricyclo[7.4.0.0^2,6]trideca-1(9),3,5-trien-8-one], 50 to 500 nM; with `C[C@@H]1Cc2c(n3ncc(CC4CCC4)c3n(-c3ccc(-c4nncn4C)cc3)c2=O)CN1C(=O)c1ccc(Br)c(Cl)c1` (stereo in doubt) [Compound 48a, rac-(11R)-12-(4-bromo-3-chloro-benzoyl)-5-(cyclobutylmethyl)-11-methyl-7-[4-(4-methyl-1,2,4-triazol-3-yl)phenyl]-2,3,7,12-tetrazatricyclo[7.4.0.0^2,6]trideca-1(9),3,5-trien-8-one], under 50 nM.
